Measured values from publication PMC7211195 (Investigational New Drugs, 2019).
Read-outs that look alike come from different tables or passages of the source.

Experiment: Lapatinib pharmacokinetics and uptake in rat brain tissue (BT);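 for BT corr (BT homogenate corrected), single rat: brain concentration corrected for residual brain blood by the Fridén method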;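 for BT corr (BT homogenate), single rat: brain concentration corrected for residual brain blood by the Fridén method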
Assay type: in vivo, rats
Conditions: male, Wistar, rat; for AUC(0-inf) / AUC(0-t) / Cmax / Tmax / k el: brain tissue
Protocol: This study was conducted on rats, which are a promising model to predict P-gp-based drug-drug interactions at the human BBB [15]. The animals were allowed to acclimate for one week before the beginning of the experiments. Adult male Wistar-strain rats (weight 470–525 g) were used in the study. The animals were maintained under standard breeding conditions with a 12/12 h light-dark cycle (lights on at 6.00 a.m., lights off at 6.00 p.m.) at constant room temperature (23 ± 2 °C), relative humidity (55 ± 10%) and ad libitum access to food and water. The experimental protocol for this study was reviewed and approved by the Local Ethics Committee. To obtain consistent data, the study was based on the required minimum number of animals and observation time. […] Three rats were used at each time point (n = 3). In total, the research was conducted on 66 animals (n = 33 in the experimental group and n = 33 in the control group).
Elacridar was freshly dissolved in a vehicle at an initial concentration of 20 mg/mL. […] A volume of 80 μL of blood was collected from each rat by cutting off a piece of its tail. The blood samples were collected into heparinized test tubes at the following time points: […], and they were immediately centrifuged at 2880 g for 10 min at 4 °C. The anaesthetized rats (anaesthetized by intramuscular administration of 50 mg/kg ketamine and 10 mg/kg xylazine) were prepared for cisterna magna puncture. The hair over the puncture was removed and the skin was disinfected with alcohol. The animals were placed in a recumbent position with an elevated rear part of the body. The animals’ heads were slightly flexed and immobilized with the operator’s left hand. The space between the occiput rostrally and the atlas (C1) of the spinal column caudally was gently palpated with the left thumb. A 0.7 × 20 G needle with polyethylene tubing (Terumo Poland, Warsaw, Poland) was gently inserted at an approximate angle of 80–90° through the skin with the operator’s right hand into the midsagittal region. The moment that dura mater perforation was perceptible, a small amount of CSF was found in the needle tubing. To sample additional CSF, a 1 mL insulin syringe (Becton Dickinson, Warsaw, Poland) was used to collect 80–120 μL of CSF by very gentle aspiration. Only clear CSF was collected for further analysis. […] The animals’ brains were immediately dissected, washed in 0.9% NaCl and divided along the longitudinal axis. One of the brain hemispheres was again rinsed three times with 5 mL of 0.9% NaCl, weighed and homogenized with 0.9% NaCl (4 mL per 1 g of BT) in an Ultra-Turrax homogenizer (Witko, Łódź, Poland). The homogenate was then centrifuged at 4500 g for 10 min. All samples of the rat BP, CSF, and BT homogenate supernatant were stored at −80 °C until analysis.
The chromatographic analysis was conducted using a 1260 Infinity system (Agilent Technologies, Santa Clara, USA) equipped with a Kinetex® C18 column (50 × 4.6 mm, 2.6 μm, Phenomenex, Torrance, USA), which was maintained at 35 °C. The mobile phase consisted of 0.1% formic acid (v/v) in water with 5 mM ammonium formate (solvent A) and acetonitrile with 10% phase A (v/v, solvent B). The analyte and internal standard (IS, erlotinib) were eluted using a gradient run of 10 min as follows: 95% A at 0–2 min; 95%–5% A at 2–4 min; 5% A at 4–5 min; 5%–95% A at 5–6 min; 95% A at 6–10 min. The flow rate and injection volume were set at 0.7 mL/min and 10 μL, respectively. The needle was washed for 30 s in a mixture of acetonitrile, methanol, isopropanol, water, and formic acid (50:20:15:15:0.25, v/v/v/v/v).

[1] = brain tissue homogenate, oral, lapatinib 100 mg/kg + elacridar, read-out: BT corr (BT homogenate), S
[2] = brain tissue homogenate, oral, lapatinib 100 mg/kg + elacridar, read-out: BT corr (BT homogenate), single rat
[3] = brain tissue homogenate, po, 100 mg/kg, lapatinib p.o. 100 mg/kg alone, read-out: BT corr (BT homogenate corrected), S
[4] = brain tissue homogenate, po, 100 mg/kg, lapatinib p.o. 100 mg/kg alone, read-out: BT corr (BT homogenate corrected), single rat
[5] = brain tissue homogenate, po, 100 mg/kg, lapatinib p.o. 100 mg/kg alone, read-out: Clapatinib in BT, S (medium value)
[6] = brain tissue homogenate, po, 100 mg/kg, lapatinib p.o. 100 mg/kg alone, read-out: Clapatinib in BT, single rat
[7] = brain, oral, lapatinib 100 mg/kg + elacridar, read-out: BT corr (BT homogenate), single rat
[8] = brain, oral, lapatinib 100 mg/kg + elacridar, read-out: Clapatinib in BT, S
[9] = brain, oral, lapatinib 100 mg/kg + elacridar, read-out: Clapatinib in BT, single rat
[10] = brain, po, 100 mg/kg, lapatinib 100 mg/kg oral + 5 mg/kg elacridar (IE+L)
[11] = brain, po, 100 mg/kg, lapatinib 100 mg/kg oral alone (IIL)

## CS(=O)(=O)CCNCc1ccc(-c2ccc3ncnc(Nc4ccc(OCc5cccc(F)c5)c(Cl)c4)c3c2)o1 [lapatinib, N-{3-Chloro-4-[(3-fluorobenzyl)oxy]phenyl}-6-[5-({[2-(methylsulfonyl)ethyl]amino}methyl)-2-furyl]-4-quinazolinamine]
[1]
  concentration at 2 h: 71.3 ng/mL
  concentration at 3 h: 198 ng/mL
  concentration at 4 h: 85 ng/mL
  concentration at 6 h: 85.8 ng/mL
  concentration at 8 h: 85 ng/mL
  concentration at 12 h: 54.4 ng/mL
  concentration at 24 h: 44.7 ng/mL
[2]
  concentration at 3 h: 170 ng/mL
  concentration at 4 h: 91.9 ng/mL
  concentration at 6 h: 87.3 ng/mL
  concentration at 8 h: 91.5 ng/mL
  concentration at 12 h: 63.6 ng/mL
  concentration at 24 h: 52.7 ng/mL
[3]
  concentration at 0.25 h: 27.9 ng/mL
  concentration at 0.5 h: 31.5 ng/mL
  concentration at 1 h: 55.5 ng/mL
  concentration at 2 h: 41.4 ng/mL
  concentration at 3 h: 111 ng/mL
  concentration at 4 h: 115 ng/mL
  concentration at 6 h: 81.9 ng/mL
  concentration at 8 h: 66.2 ng/mL
[4]
  concentration at 0.25 h: 22.5 ng/mL
  concentration at 0.5 h: 24 ng/mL
  concentration at 1 h: 48.1 ng/mL
  concentration at 2 h: 30.1 ng/mL
  concentration at 3 h: 139 ng/mL
  concentration at 4 h: 94.2 ng/mL
  concentration at 8 h: 87.5 ng/mL
[5]
  concentration at 0.25 h: 34.3 ng/mL
  concentration at 0.5 h: 44.9 ng/mL
  concentration at 1 h: 76 ng/mL
  concentration at 2 h: 63.7 ng/mL
  concentration at 3 h: 134 ng/mL
  concentration at 4 h: 147 ng/mL
  concentration at 6 h: 101 ng/mL
  concentration at 8 h: 85.5 ng/mL
  concentration at 12 h: 59.6 ng/mL
[6]
  concentration at 0.25 h: 27.7 ng/mL
  concentration at 0.5 h: 36.2 ng/mL
  concentration at 1 h: 66.5 ng/mL
  concentration at 2 h: 49.8 ng/mL
  concentration at 3 h: 115 ng/mL
  concentration at 4 h: 133 ng/mL
  concentration at 6 h: 131 ng/mL
  concentration at 8 h: 108 ng/mL
[7]
  concentration at 0.25 h: 30.7 ng/mL
  concentration at 0.5 h: 45.2 ng/mL
[8]
  concentration at 0.25 h: 40.8 ng/mL
  concentration at 0.5 h: 58.8 ng/mL
  concentration at 1 h: 98.6 ng/mL
  concentration at 2 h: 102 ng/mL
  concentration at 3 h: 221 ng/mL
  concentration at 4 h: 97.6 ng/mL
  concentration at 6 h: 98.7 ng/mL
  concentration at 8 h: 102 ng/mL
  concentration at 24 h: 56.9 ng/mL
[9]
  concentration at 0.25 h: 37.6 ng/mL
  concentration at 0.5 h: 62 ng/mL
  concentration at 1 h: 95.2 ng/mL
  concentration at 3 h: 198 ng/mL
  concentration at 4 h: 107 ng/mL
  concentration at 6 h: 100 ng/mL
  concentration at 8 h: 98.5 ng/mL
  concentration at 12 h: 86.5 ng/mL
  concentration at 24 h: 65.5 ng/mL
[10]
  AUC(0-inf): 2520 ± 611 ng·h/mL
  AUC(0-t): 1610 ± 131 ng·h/mL
  Cmax: 198 ± 39 ng/mL
  Tmax: 3 h
  k el: 1.39e-05 s⁻¹
[11]
  AUC(0-inf): 1350 ± 712 ng·h/mL
  AUC(0-t): 836 ± 21.2 ng·h/mL
  Cmax: 128 ± 16.4 ng/mL
  Tmax: 4.5 ± 2.12 h
  k el: 6.94e-05 s⁻¹
brain, po, 100 mg/kg, lapatinib p.o. 100 mg/kg alone, read-out: BT corr (BT homogenate corrected), S
  concentration at 12 h: 44.5 ng/mL
